Source: patent US20050048108A1, “Sulphur-containing amphiphilic agents for the transfer of biologically active molecules into cells” (G.O.T. Therapeutics GMBH, priority 2000, published 2005)

Test system: HeLa (human cervical carcinoma), F98 (rat glioblastoma), IMR90 (human embryonic lung) cell lines
Assay: Transfection of adherent cell lines with pUT 651 plasmid (lacZ / β-galactosidase reporter)
Assay type: cell-based
Settings: all investigated cell lines, versus Lipofectin, LipofectAMINE, DOTAP and DAC-30
Description: The gene transfer properties of the lipids according to the invention (lipid 9 (Sulfectin A) and lipid 10 (Sulfectin B)) were tested on various cell lines and were compared with the reagents known heretofore (FIGS. 3, 4 and 5). A plasmid coded for β-galactosidase was used as the reporter system. In the trials, the lipids were also mixed with, among other things, the neutral auxiliary lipid 1,2-dioleoyl-sn-glycero-3-phosphoethanolamine (DOPE). […] Among others a β-galactosidase expression up to 10 times higher was found. This is the more surprising in that in most cases (IMR90 and F98 cells) no admixture of an a helper lipid was necessary. With all the commercial lipids, on the other hand, a portion of DOPE was indispensable for an efficient gene transfer. The high gene transfer efficiency of the pure lipid is also advantageous for the production of the gene transfer reagent, since the formulation step of the cationic lipid and auxiliary lipid is omitted. […]
After a transfection time of 24 h, the medium is changed and the cells are incubated for a further 48 h. […] The lysate is treated with chlorophenol red β-galactopyranoside (Roche Diagnostics, 1 mg/ml in HBSS) as a substrate for β-galactosidase, and the optical density at different intervals is determined with a microplate reader (Dynex) (measurement wavelength 540 nm, reference wavelength 630 nm).

Compound | gene transfer (transfection) efficiency compared with the known lipids
CCCCCCCC/C=C\CCCCCCCC(=O)OCC(CCS(=O)(=O)CCCN)OC(=O)CCCCCCC/C=C\CCCCCCCC.O=C(O)C(F)(F)F (centres unmarked) [lipid 9, 3-[(3,4-dioleoyloxybutyl)-sulfonyl]propyl-1-ammonium trifluoroacetate] | markedly higher efficiency
CCCCCCCC/C=C\CCCCCCCC(=O)OCC(CC[S+]([O-])CCCN)OC(=O)CCCCCCC/C=C\CCCCCCCC.O=C(O)C(F)(F)F (centres unmarked) [lipid 10, 3-[(3,4-dioleoyloxybutyl)-sulfinyl]propyl-1-ammonium trifluoroacetate] | markedly higher efficiency
